{"source": "patent US20240342152A1", "about": "“Method of Treatment” (Vanda Pharmaceuticals Inc., priority 2022, published 2024)", "key": {"[1]": {"test_system": "patients with bipolar I disorder", "experiment": "Phase III clinical study of iloperidone in acute manic and mixed episodes associated with bipolar I disorder", "format": "in vivo, adults", "procedure": "In a Phase III clinical study of iloperidone as a treatment of acute manic and mixed episodes associated with bipolar I disorder, approximately 400 volunteers with a history of bipolar disorder and suffering from a current episode of mania are randomized to receive either iloperidone or placebo in a 1:1 ratio. Treatment efficacy is assessed using the Young Mania Rating Scale (YMRS), a known rating scale of clinical severity in the core symptoms of mania, as well as the Clinician Global Impression of Severity (CGI-S) and the Clinician Global Impression of Change (CGI-C).\nYMRS assessments are made at baseline and during days 7, 10, 14, 21, and 28 using the following key: • 0=reports no decrease in sleep; • 1=sleeping less than normal amount by up to one hour; • 2=sleeping less than normal by more than one hour; • 3=reports decreased need for sleep; and • 4=denies need for sleep.\nPatients receive four weeks of double-blind treatment comprising the administration of 24 mg/d iloperidone b.i.d. (12 mg twice daily), 12 mg/d b.i.d. (6 mg twice daily) for poor metabolizers, or placebo. CYP2D6 non-poor metabolizers are titrated to a clinical dose of 24 mg/day (12 mg twice daily) by administering 1 mg twice per day on day 1, 3 mg twice per day on day 2, 6 mg twice per day on day 3, 9 mg twice per day on day 4, and 12 mg twice per day on day 5 and each day thereafter. CYP2D6 poor metabolizers are titrated to 12 mg/day (6 mg twice daily) by administering 1 mg twice per day on day 1, 3 mg twice per day on day 2, and 6 mg twice per day on day 3 and each day thereafter."}, "[2]": {"test_system": "adults with schizophrenia or bipolar I disorder", "experiment": "Clinical study of tolerability of faster iloperidone titration (orthostatic hypotension monitoring)", "format": "in vivo", "conditions": "n=12", "procedure": "A clinical study of adults (n=12, age 18-65, inclusive) with schizophrenia or bipolar I disorder is conducted to assess the tolerability of a faster iloperidone titration scheme. Patients are assigned to one of two cohorts based on CYP2D6 phenotype.\nCYP2D6 non-poor metabolizers are titrated to a clinical dose of 24 mg/day (12 mg twice daily) by administering 1 mg twice per day on day 1, 3 mg twice per day on day 2, 6 mg twice per day on day 3, 9 mg twice per day on day 4, and 12 mg twice per day on day 5. CYP2D6 poor metabolizers are titrated to 12 mg/day (6 mg twice daily) by administering 1 mg twice per day on day 1, 3 mg twice per day on day 2, and 6 mg twice per day on day 3. In each case, the target dose of 24 mg/day or 12 mg/day is continued until day 7.\nPatients are monitored for OH by measuring blood pressure after lying supine for three minutes and two minutes after standing. OH is defined as a fall in systolic blood pressure of 20 mmHg or more or a fall in diastolic blood pressure of 10 mmHg or more.\nThe results are compared to historical placebo data from a prior study of the FDA-approved titration regimen."}, "[3]": {"test_system": "patients with schizophrenia", "conditions": "patients continuing on therapy past the titration period; cited from earlier work"}, "[4]": {"conditions": "endpoint (day 28), ITT population, N = 198"}}, "data": [{"smiles": "COc1cc(C(C)=O)ccc1OCCCN1CCC(c2noc3cc(F)ccc23)CC1", "note": "[Iloperidone, 1-[4-[3-[4-(6-fluoro-1,2-benzisoxazol-3-yl)-1-piperidinyl]propoxy]-3-methoxyphenyl]ethanone]", "values": [{"measurement": "Sedation reported as treatment-emergent adverse event", "setting": "[1]; N = 206", "value": "5 (2.4) n (%)"}, {"measurement": "Somnolence reported as treatment-emergent adverse event", "setting": "[1]; N = 206", "value": "11 (5.3) n (%)"}, {"measurement": "Onset of statistically significant YMRS benefit versus placebo", "setting": "[1]; YMRS assessment", "value": "as early as the end of week 2"}, {"measurement": "YMRS Total Score, Diff (iloperidone vs placebo)", "setting": "[1]; day 28, ITT population, p-value 0.000008", "value": "−4.0"}, {"measurement": "CGI-C, Diff (iloperidone vs placebo)", "setting": "[1]; day 28, ITT population, p-value 0.0002", "value": "−0.5"}, {"measurement": "CGI-S, Diff (iloperidone vs placebo)", "setting": "[1]; day 28, ITT population, p-value 0.0005", "value": "−0.4"}, {"measurement": "MADRS Total Score, Diff (iloperidone vs placebo)", "setting": "[1]; day 28, ITT population, p-value 0.1365", "value": "−0.9"}, {"measurement": "CGI-C", "setting": "[1]; [4]", "value": 2.3}, {"measurement": "CGI-S, change from baseline", "setting": "[1]; [4]", "value": "−1.5"}, {"measurement": "MADRS Total Score, change from baseline", "setting": "[1]; [4]", "value": "−2.7"}, {"measurement": "YMRS Total Score, change from baseline", "setting": "[1]; endpoint (day 28), ITT population, N = 198, 24 mg/d b.i.d. (12 mg/d for CYP2D6 poor metabolizers)", "value": "−14.0"}, {"measurement": "YMRS change associated with SNP rs62300864 (SHROOM3)", "setting": "[1]; iloperidone-treated group (n=167), p 1.64 × 10^−6", "value": "12.08 ± 2.43"}, {"measurement": "YMRS change associated with SNP rs55837573 (RELN)", "setting": "[1]; iloperidone-treated group (n=167), p 2.48 × 10^−6", "value": "−4.61 ± 0.94"}, {"measurement": "YMRS change associated with SNP rs76876307 (FAT3)", "setting": "[1]; iloperidone-treated group (n=167), p 5.27 × 10^−6", "value": "15.44 ± 3.28"}, {"measurement": "YMRS change associated with SNP rs1118464 (NAV2)", "setting": "[1]; iloperidone-treated group (n=167), p 6.98 × 10^−6", "value": "−4.15 ± 0.89"}, {"measurement": "YMRS sleep component, least squares mean change from baseline to day 28", "setting": "[1]; placebo −0.95, p=0.008", "value": "−1.26"}, {"measurement": "Tolerability of faster titration", "setting": "[2]; compared to historical placebo data", "value": "well-tolerated"}, {"measurement": "Patients meeting orthostatic hypotension (OH) criteria", "setting": "[2]; faster titration to 24 mg/day (12 mg/day poor metabolizers), to day 7, OH = fall in systolic ≥20 mmHg or diastolic ≥10 mmHg", "value": "Only one patient receiving iloperidone met the OH criteria"}, {"measurement": "Incidents of dizziness, syncope, or accidental trauma", "setting": "[2]; faster titration, to day 7", "value": "no reported incidents of dizziness, syncope, or accidental trauma"}, {"measurement": "Other adverse events", "setting": "[2]; faster titration, to day 7", "value": "no other adverse events"}, {"measurement": "Efficacy in treating schizophrenia relative to haloperidol and risperidone", "setting": "[3]", "value": "comparable to that of haloperidol and risperidone"}]}]}
